Data reported in paper PMC11561238, “Discovery and binding mode of small molecule inhibitors of the apo form of human TDO2” (Scientific Reports, 2024).
“And” between values parts separate entries of the source, which are not always exact repeats. Equal values may be shown once.

Experiments:
[1] = test system: patients with unresectable or metastatic melanoma; design: method as in PMID 31221619; settings: with pembrolizumab, vs placebo; cited from earlier work
holo-TDO2 = test system: holo-TDO2; design: method as in PMID 27762317; settings: AMT bound to exosite; cited from earlier work
apo-TDO2 = biological target: T1, apo-TDO2 (Homo sapiens, UniProt P48775); test: Differential scanning fluorimetry (thermal shift) of apo-TDO2; type: binding
T1 construct: a longer construct (His6-aa19-406, with aa406 corresponding to the wild type C-terminal residue), which was used for DSF and other experiments; made in house; host or cells: E. coli RP523 (hemB mutant, unable to synthesize heme)
Experimental: […] S5 online).
Protein thermal stability and small molecule ligand binding of TDO2 in vitro was studied using differential scanning fluorimetry (DSF, also known as thermal shift assay)[34]. Assay ingredients and ligands were combined to obtain a mixture composed of 10 µM TDO2 and 10x SYPRO Orange, in assay buffer (50 mM HEPES-NaOH pH 8.0, 200 mM NaCl, 2 mM TCEP, 10% glycerol) and 2% final DMSO concentration. Small molecule chemical ligands were taken from DMSO stock solution (100 mM, 10 mM) and diluted in DMSO transferred to wells of PCR Plates (Micro Amp Fast 96-well Reaction Plates, Applied Biosystems) to ensure matching final DMSO concentrations.
DSF was carried out with a StepOnePlus™ real time PCR system. Thermal denaturation of TDO2 was monitored with a ramp rate of 1 K/min. Protein melting curves were evaluated using the Thermal Shift Software v 1.3. (Thermo Fisher Scientific) to derive differences in midpoint melting-temperatures (derivative model). The thermal shift (DTm) is documented as the difference between the reference midpoint melting temperature of proteins (containing 500 µM AMT) in the presence of the ligand vehicle (DMSO) and in the presence of ligand.
Supplementary Table S2. Differential scanning fluorimetry data corresponding to supplementary figure S4. The experiments were carried out in quadruplicate, or in triplicate where single outlier values (highlighted in bold italics) were excluded from calculation of the melting curves. AMT was added at a concentration of 500 µM; […] and […] were added at a concentration of 25 µM.

[2] = apo-TDO2 + AMT 500 µM alone, shift vs apo, single replicates, in °C

T1 sequence (P48775 19-406): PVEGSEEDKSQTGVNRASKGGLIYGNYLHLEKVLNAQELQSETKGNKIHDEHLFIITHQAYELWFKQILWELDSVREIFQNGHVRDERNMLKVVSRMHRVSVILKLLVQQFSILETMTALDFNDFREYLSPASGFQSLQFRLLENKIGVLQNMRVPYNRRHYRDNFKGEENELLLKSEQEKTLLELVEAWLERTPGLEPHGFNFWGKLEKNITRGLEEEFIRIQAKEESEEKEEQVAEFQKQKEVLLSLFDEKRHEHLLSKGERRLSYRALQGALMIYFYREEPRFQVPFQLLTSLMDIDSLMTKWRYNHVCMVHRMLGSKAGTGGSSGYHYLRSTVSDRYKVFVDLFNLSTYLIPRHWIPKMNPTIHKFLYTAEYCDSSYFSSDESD

Compound: NS(=O)(=O)NCCNc1nonc1C(=NO)Nc1ccc(F)c(Br)c1 [epacadostat]
- progression-free survival or overall survival [1]: failed to show improved progression-free survival or overall survival compared with placebo

Compound: C[C@](N)(Cc1c[nH]c2ccccc12)C(=O)O [AMT, α-methyltryptophan, reference compound]
- effect on catalytic properties of holo-TDO2 (holo-TDO2): not affecting the catalytic properties
- effect on proteolytic degradation of holo-TDO2 (holo-TDO2): prevented its proteolytic degradation by the ubiquitin-dependent proteasomal pathway
- stabilization of isolated holo-TDO2 enzyme (holo-TDO2): stabilized the isolated holo-TDO2 enzyme against heat, urea and proteases
- melting temperature of apo-TDO2 in the absence of inhibitor (apo-TDO2; 500 µM AMT present): 59.2 °C
- Δ Tm Boltzmann (apo-TDO2; [2]): 9.95 and 10.71 and 10.46
- Δ Tm Derivative (apo-TDO2; [2]): 9.6 and 10.48 and 10.27
- Tm Boltzmann (apo-TDO2; apo-TDO2 + AMT 500 µM alone, single replicates (text b14 gives °C), in °C): 58.75 and 59.51 and 59.26
- Tm Derivative (apo-TDO2; apo-TDO2 + AMT 500 µM alone, single replicates, in °C): 58.49 and 59.36 and 59.16
